From patent publication US20180183541A9, “A New Treatment For Improving The Use Of Dietary Sugar For Energy Purposes” (Nutravis S.r.l., priority 2014, published 2018)
Where two headings read alike, the source gives them in different places.

What was measured:
[1] = Body weight gain induced by chronic high-dose glucose in mice; assay type: in vivo, mouse; settings: female CD1 mice, ABA 1 μg/Kg BW with glucose 1 g/Kg BW daily in drinking water, 12 weeks
Description: Five, week-old female CD1 mice (outbread) (9 per group) were administered glucose in the drinking water, without (controls) or with the addition of synthetic ABA. To achieve the required daily dose of glucose (1 g/kg BW) and of ABA (1 μg/Kg BW) the daily volume of water drank by the animals used for the test was preliminary established. Based on this volume (5 ml/day), and taking into account an average weight of the mice of 30 grams, the water administered to the animals, contained 0,006 g/ml of glucose and 0,006 μg/ml ABA. The weight control was performed after 12 weeks of treatment on the two groups of animals fasted for 17 hours before measurement of the weight. The reason for using female CD1 for this test was that they show a natural predisposition to accumulation of adipose tissue that is not found, instead, in males of the same strain.
FIG. 8. Daily oral intake of synthetic ABA at the dose of 1 μg/Kg reduces the body weight increase induced by the chronic intake of high-dose glucose (1g/Kg) in mice. Five-week old female CD1 mice (outbred) (9/group) received daily, in the drinking water, a glucose solution without (controls) or with synthetic ABA (see Materials and Methods for details). Body weight was determined after 12 weeks of treatment, and both groups of animals were fasted for 17 hours before measurement. […]

[2] = system: Male CD1 mice; assay: Muscle performance in mice (spontaneous wheel running); assay type: in vivo, mouse; settings: ABA 1 μg/Kg BW with glucose 1 g/Kg BW for 12 weeks
Description: Male CD1 mice (outbread) (8 per group) were administered glucose with the drinking water without (controls) or with the addition of synthetic ABA. The concentrations of glucose and of ABA in water were calculated considering the average daily volume drank by each mice so as to reach a dose of 1 g/Kg BW and 1 μg/Kg BW of ABA. After 12 weeks of treatment the mice (average weight 45.1 and 43.3 grams for the animals treated with glucose and glucose+ABA, respectively) were kept 12 hours in two separate cages, each equipped with a wheel connected to a digital odometer measuring the total distance traveled on the wheel and the time of rotation of the wheel. The tests were performed during the night time on animals with freely available food and water containing glucose alone (controls) or glucose+ABA. The reason for using male CD1 mice for this experiment is their natural predisposition to develop more muscle mass compared to females from the same strain.
Table 6. […] Male CD1mice (outbred) (8/group) with a mean weight of 45.1 and 43.3 g for animals treated with glucose and glucose+ABA, respectively, were kept for the same time (12 hours) in two cages, each containing a wheel connected to a digital cyclometer, capable of measuring the total distance travelled and the duration of rotation of the wheel. The tests (n=2 for each group of animals) were performed during the night hours, with ad libitum food and water, containing glucose (controls) or glucose+ABA.

[3] = Stability tests of ABA at high temperatures (autoclave sterilization); assay type: physicochemical; settings: autoclave sterilization at 121° C. for 8 min; HPLC-MS
Description: Experiments were performed to evaluate the heat stability of synthetic ABA or of ABA naturally present in aqueous and supercritical extracts. Samples containing known nanomolar concentrations of ABA (either synthetic or present in the extracts) were divided into two aliquots of equal volume and subjected or not (control) to autoclave sterilization at 121° C. for 8 min (the condition generally applied to the sterilization of food). After sterilization, 100 μl of each aliquot and its un-sterilized control were injected into an analytical Hypercarb column (Thermo Scientific, Pittsburgh, Pa.) (4.6×100 mm; particle size 5 μm). Solvent A was water containing 0.1% formic acid (FOA), solvent B was acetonitrile containing 0.1% FOA and solvent flux was 0.8 ml/min. The linear elution gradient was from 100% A to 100% B in 30 min. Fractions were taken every 30 sec, lyophilized, re-dissolved in 11 μl of a solution composed of 90% solvent A and 10% solvent B of the HPLC-coupled mass spectrometry analysis and [^2H6]-ABA was added as an internal standard. Samples were analyzed as previously described under “Determination of the ABA content in several foods”. The amount of ABA present in the aliquots subjected to sterilization was unchanged compared with that measured in the control samples.

[4] = system: Wistar male rats
Description: For the determination of blood glucose in rats, blood samples were taken from the tail vein of anesthetized animals and blood glucose was measured with a glucometer (Bayer). The quantification of insulin on the same animals, was carried out by sampling blood from the orbital sinus, immediately adding heparin and subjecting each sample to centrifugation at 22000×g for 30 sec: aliquots of plasma were stored at −20° C. The plasma insulin concentration was determined with an ELISA kit (Bertin-Pharma, Montigny, France).
Wistar male rats (obtained from Charles River, Milan, Italy), age between 9 and 13 weeks, were divided into two groups (12 animals per group) and fasted for 17 hours. After mild sedation with diazepam, 1 g/kg BW of glucose was administered by gavage in about 300-400 μl of aqueous solution, containing or not 1 μg/Kg BW of synthetic ABA, or the same dose of ABA or ABA-GE endogenously present in a supercritical or water plant extract. Immediately after gavage, rats were anesthetized with xylazine and ketamine. Blood glucose was measured with a glucometer on blood taken from the tail vein immediately before gavage (time zero) and 15, 30 and 60 minutes after gavage. Each measurement was performed in duplicate.
Two groups of male Wistar rats (12 animals per group), fasted for 17 hours, were subjected to an OGTT (1 g/Kg BW glucose) , without or with 1 μg/Kg BW of synthetic ABA. Glycemia was measured with a glucometer in duplicate on blood taken from the tail vein at baseline (immediately before gavage) and at the indicated times after gavage. Insulinemia was measured by ELISA, in duplicate on plasma samples. Results are mean ±SD.

[5] = system: db/db mice; settings: cited from earlier work
[6] = system: myoblasts; settings: myoblasts incubated in vitro with 100 nM ABA (Bruzzone et al. 2012); cited from earlier work
[7] = In vivo hydrolysis of orally given ABA-GE to ABA, plasma HPLC-MS; design: species or system rat; settings: 30 and 60 min after gavage of synthetic ABA-GE, Wistar rats n=3
Source text: Wistar rats (n=3) were given an amount of synthetic ABA-GE by gavage in order to evaluate its in vivo hydrolysis, resulting in the release of ABA. […] Therefore, the ABA-GE present in the aqueous apricot extract contributes to the effective dose of ABA taken with the extract, as it can be hydrolyzed to yield free ABA.
FIG. 4: HPLC-MS analysis of representative plasma samples from a rat subjected to gavage with a solution containing synthetic ABA-GE. […] The amount of ABA released by hydrolysis from its conjugated form ABA-GE at different times (30 and 60 min after gavage) was measured by HPLC-MS. The coefficient of absorbance of ABA-GE at 254 nm, used for chromatographic analysis, is approximately 10 times lower than that of free ABA. This explains the different area of their respective chromatographic peaks.

[8] = synthetic ABA 1 μg/Kg BW during OGTT
[9] = synthetic ABA 1 μg/Kg BW with glucose 1 g/Kg BW by gavage

SMILES | weight increase compared to the controls [1] | maximal speed recorded compared with that of the controls [2] [times] | Time of use ([2]; wheel available 12 hours) [min] | Total distance covered (m) ([2]; wheel available 12 hours) | amount of ABA after sterilization compared with control samples [3] | glycemic profile compared to the controls ([4]; ABA 95 μg/Kg BW during OGTT) | glycemic profile compared to the controls ([4]; ABA 100 mg/Kg BW during OGTT) | insulin AUC compared to control rats ([4]; ABA 100 mg/Kg BW during OGTT) | insulin response to the glucose load ([4]; ABA 1 and up to 95 μg/Kg BW) | plasma concentration corresponding to the dose ([4]; male, Wistar, rat, in vivo) | mean level of plasmatic insulin compared to controls [4, 8] | reduction of insulin AUC compared to controls [4, 8] | AUC of glycemia compared to the controls [4, 9] | glycemic profile compared to the controls [4, 9] | minimum effective dose improving glucose tolerance ([5]; dietary intake, mice diabetic by leptin receptor mutation (Guri et al., 2007)) [mg/kg] | weight increase compared with the controls ([5]; mice chronically treated with ABA at 100 mg/Kg BW (literature)) | glucose transport [6] | chromatographic peak of free ABA in plasma compared to 0 min [7]
CC1=CC(=O)CC(C)(C)C1(O)/C=C/C(C)=C\C(=O)O (racemic) [ABA, 2-cis, 4-trans-abscisic acid] | significantly lower weight increase | 3.2 | 105 | 2693 | unchanged | reduced compared to the controls | reduced compared to the controls | comparable to that of control rats | significant decrease | less than 10 nM | significantly lower | about 15 times | significantly lower AUC of glycemia | significantly reduced glycemic profile | 100 | not dissimilar compared with the controls | increased glucose transport | 
CC1=CC(=O)CC(C)(C)[C@@]1(O)/C=C/C(C)=C\C(=O)O[C@@H]1O[C@H](CO)[C@@H](O)[C@H](O)[C@H]1O [ABA-GE, ABA-glucosyl ester] |  |  |  |  |  |  |  |  |  |  |  |  |  |  |  |  |  | marked increase
